{"source": "patent US8377918B2", "about": "(ACC Therapeutics Inc, priority 2005, dated 2013)", "key": {"lung cancer cell A549": {"test_system": "lung cancer cell A549", "assay": "A549 cell counting proliferation", "type": "cell-based, human", "conditions": "A549, 10 and 20 μM, 24 and 48 h", "description": "FIG. 12. […] A, A549 cells were seeded at 5 ×10^5 cells/well on a 24-well plate, and cultured overnight the day before the treatment. […] After 24 and 48 h, aliquots of cells were counted in triplicate using a hemocytometer to obtain cell number and proliferation rate."}, "[1]": {"test_system": "HIF-1 expression in A2780/CP70 cells", "assay": "HIF-1 immunoblotting, A2780/CP70", "type": "cell-based, human", "description": "FIG. 5. […] The cells treated with solvent alone were used as a control. HIF-1α and HIF-1β protein levels were detected by immunoblotting as described in Materials and Methods. GAPDH was used as an internal control to test the loading and transfer efficiency."}, "A2780/CP70 tumors": {"test_system": "A2780/CP70 tumors", "assay": "Secondary tumor growth in chicken embryos", "type": "in vivo, chicken embryo", "conditions": "7.5 μM apigenin, 9 days", "description": "FIG. 2. […] Ovarian cancer cells A2780/CP70 were planted into 9-days old fertilized chicken embryos and incubated for 9 days to allow the tumor formation. The formed tumors were harvested and cut into pieces of 9-10 mg weight, and immediately implanted into another 9-day old fertilized chicken embryo and incubated for 9 days. […] In 9 days, the secondary tumor was cut and weighed."}, "H460 cells": {"test_system": "H460 cells", "assay": "MTT cell proliferation assay, H460 lung cancer cells", "type": "cell-based, human", "conditions": "H460, apigenin alone, 24 h", "description": "FIG. 17. […] A, the prostate cancer cells PC-3 and DU145; B, colon cancer cells Colo-205 and HCT-116; C, lung cancer cells A549 and H460 cells were plated at 1×10^4 cells per well in a 96 well plate in 100 μl of media. […] FIG. 18. […] A and B, the prostate cancer cells PC-3 and DU145; C, colon cancer cells Colo-205 and HCT-116; D, lung cancer cells A549 and H460 cells were plated at 1×10^4 cells per well in a 96 well plate in 100 μl of media. […] The cell proliferation was analyzed by MTT assay. […] FIG. 22. […] A, colon cancer cells Colo-205 and HCT-116; B, lung cancer cells A549 and H460 cells were plated at 1×10^4 cells per well in a 96 well plate the day before the treatment. […] Cell proliferation was examined by MTT assay. […] FIG. 25."}, "A2780/CP70 cells": {"test_system": "A2780/CP70 cells", "assay": "Annexin V apoptosis assay, A2780/CP70", "type": "cell-based, human", "conditions": "24 h", "description": "FIG. 1. […] (A) A2780/CP70 cells and human fibroblast GM847 cells were seeded in 96-well plate at 4×10^3 cells per well and incubated overnight. […] The cells were incubated for 24 h. Cell proliferation was determined by MTT reduction. […] Cells were trypsinized, harvested, washed once with PBS buffer, and stained using the Annexin-V-Folus Kit as per the manufacture's instructions. […] After incubation, all cells were collected and total DNA was isolated. Eight (8) μg of DNA was resolved on 1.8% agarose gel. […] (D) Treatment of GM847 cells was the same as that of 5D. […] Cleavage of caspase-3 and PARP was detected by western-blot.\nFIG. 10. […] The cisplatin-resistant ovarian cancer A2780/CP70 cells were seeded in a petri dish. […] After treatment, the cells were collected and the relative cellular apoptosis was analyzed by Annexin V Kit (Roche), and compared to the control."}, "[2]": {"test_system": "VEGF transcriptional activity in A549 cells", "assay": "VEGF reporter luciferase assay in A549", "type": "cell-based, human", "conditions": "A549, 5, 10, and 20 μM, 24 h", "description": "FIG. 13. […] A549 cells were seeded on a six-well plate. When they reached 60 to 70% confluence, the cells were transfected using Lipofectamine reagent. A, A549 cells were cotransfected with 1 μg of pGL-StuI VEGF reporter and 0.3 μg of β-gal plasmid as described. […] Cells were then lysed and the supernatants were used to assay Luc and β-gal activities. The relative luciferase activities in the cell extracts were assayed by the ratio of Luc/β-gal activity and normalized to the value in the solvent DMSO control. B, cells were cotransfected with 1 μg of pMAP11wt VEGF reporter and 0.3 μg of β-gal plasmid as described. Cells were treated with different doses of apigenin as described above. C, the cells were transfected with pMAP11mut VEGF reporter (with 3-bp substitution of pMAP11wt), and treated as above “B”."}, "endothelial cells": {"test_system": "endothelial cells", "assay": "Tube formation in vitro", "type": "cell-based"}, "A549 cells": {"test_system": "A549 cells", "assay": "MTT cell proliferation assay, A549 lung cancer cells", "type": "cell-based, human", "conditions": "A549, apigenin alone, 24 h", "description": "(§1) FIG. 17. […] A, the prostate cancer cells PC-3 and DU145; B, colon cancer cells Colo-205 and HCT-116; C, lung cancer cells A549 and H460 cells were plated at 1×10^4 cells per well in a 96 well plate in 100 μl of media."}, "HCT-116 cells": {"test_system": "HCT-116 cells", "assay": "MTT cell proliferation assay, HCT-116 colon cancer cells", "type": "cell-based, human", "conditions": "HCT-116, apigenin alone, 24 h", "description": "as §1"}, "DU145 cells": {"test_system": "DU145 cells", "assay": "MTT cell proliferation assay, DU145 prostate cancer cells", "type": "cell-based, human", "conditions": "24 h", "description": "FIG. 8. […] Prostate cancer cells PC-3 and DU145 were seeded in 96-well plates at 1×10^4 cells/well. […] The cell proliferation was assayed by culturing the cells for 24 h, then adding 10 μl of MTT reagent with incubation for 2 h. The reaction was stopped by adding 100 μl of solubilization solution. The relative cell proliferation was obtained by the reading at 590 nm which was recorded in a spectrophotometer, and normalized to the value of control.\nas §1\nFIG. 19. […] A, prostate cancer cells PC-3; and B, DU145 cells were plated at 1×10^4 cells per well in a 96 well plate in 100 μl of media. […] Cell proliferation was examined by MTT assay.\nFIG. 21. […] A, the prostate cancer cells PC-3 and DU145; B and C, colon cancer cells Colo-205 and HCT-116 were plated at 1×10^4 cells per well in a 96 well plate in 100 μl of media a day before the treatment.\nFIG. 23. […] Cell proliferation was examined by MTT assay."}, "[3]": {"test_system": "VEGF expression in OVCAR-3 cells", "assay": "VEGF ELISA of supernatants, OVCAR-3", "type": "cell-based, human", "conditions": "OVCAR-3, 15 h", "description": "(§2) FIG. 6. […] OVCAR-3 and A2780/CP70 cells were plated in 12-well plates and cultured to 90% confluence. […] The concentrations of VEGF in the supernatants were determined by ELISA method as described in Materials and Methods. The data are mean±SE from three independent experiments and each experiment was performed with triplicate cultures."}, "[4]": {"test_system": "VEGF expression in A2780/CP70 cells", "assay": "VEGF ELISA of supernatants, A2780/CP70", "type": "cell-based, human", "conditions": "A2780/CP70, 15 h", "description": "as §2"}}, "data": [{"smiles": "O=c1cc(-c2ccc(O)cc2)oc2cc(O)cc(O)c12", "note": "[apigenin, 4′,5,7,-trihydroxyflavone]", "values": [{"measurement": "effect on lung cancer cell proliferation", "setting": "lung cancer cell A549", "value": "significantly inhibits"}, {"measurement": "effect on HIF-1 expression", "setting": "[1]", "value": "inhibited HIF-1 expression"}, {"measurement": "effect on tumor growth (secondary tumor weight)", "setting": "A2780/CP70 tumors", "value": "inhibited tumor growth"}, {"measurement": "effect on cell proliferation", "setting": "H460 cells", "value": "inhibited the proliferation"}, {"measurement": "cells undergoing apoptosis", "setting": "A2780/CP70 cells; A2780/CP70, 10 μM apigenin or 10 μM apigenin plus 10 μM cisplatin", "value": 12, "unit": "%"}, {"measurement": "induction of apoptosis", "setting": "A2780/CP70 cells; A2780/CP70, apigenin alone", "value": "specifically induced apoptosis"}, {"measurement": "effect on VEGF transcriptional activation", "setting": "[2]", "value": "dramatically suppresses"}, {"measurement": "effect on tube formation", "setting": "endothelial cells", "value": "inhibited tube formation"}, {"measurement": "effect on cell proliferation", "setting": "A549 cells", "value": "inhibited the proliferation"}, {"measurement": "effect on cell proliferation", "setting": "HCT-116 cells", "value": "inhibited the proliferation"}, {"measurement": "effect on sensitivity to etoposide treatment", "setting": "DU145 cells; DU145, 15 μM apigenin", "value": "increased the sensitivity"}, {"measurement": "effect on cell proliferation", "setting": "DU145 cells; DU145, apigenin alone", "value": "inhibited"}, {"measurement": "effect on expression of VEGF", "setting": "[3]", "value": "inhibited the expression of VEGF"}, {"measurement": "effect on expression of VEGF", "setting": "[4]", "value": "inhibited the expression of VEGF"}]}]}
